Results published in PubChem BioAssay (NCI).
Values joined by “and” are separate entries in the source; they are usually repeats but may differ in a detail not shown here. Equal entries are not always repeated.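 Growth conditions: 96-well plates. Treatment: test compound, 48 hours, 5 concentrations. Analysis: linear interpolation between bracketing concentrations; unreached endpoints set to highest concentration. Here, GI50 denotes the concentration required for 50% inhibition of growth. TGI: concentration producing complete growth inhibition.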

Key:
Assay in all cases: NCI-60 cell line screen, 48 h; in the data active = GI50 below about 0.43 µM; inactive = the rest
786-0 renal = tested on: 786-0 renal
A549 NSCLC = tested on: A549 NSCLC
ACHN renal = tested on: ACHN renal
CAKI-1 renal = tested on: CAKI-1 renal
CCRF-CEM leukemia = tested on: CCRF-CEM leukemia
COLO 205 colon = tested on: COLO 205 colon
DLD-1 colon = tested on: DLD-1 colon
DMS 114 small cell lung = tested on: DMS 114 small cell lung
DMS 273 small cell lung = tested on: DMS 273 small cell lung
HCC-2998 colon = tested on: HCC-2998 colon
HCT-116 colon = tested on: HCT-116 colon
HCT-15 colon = tested on: HCT-15 colon
HL-60(TB) leukemia = tested on: HL-60(TB) leukemia
HOP-62 NSCLC = tested on: HOP-62 NSCLC
HOP-92 NSCLC = tested on: HOP-92 NSCLC
HT29 colon = tested on: HT29 colon
IGROV1 ovarian = tested on: IGROV1 ovarian
K-562 leukemia = tested on: K-562 leukemia
KM12 colon = tested on: KM12 colon
KM20L2 colon = tested on: KM20L2 colon
LXFL 529 NSCLC = tested on: LXFL 529 NSCLC
M14 melanoma = tested on: M14 melanoma
M19-MEL melanoma = tested on: M19-MEL melanoma
MALME-3M melanoma = tested on: MALME-3M melanoma
MOLT-4 leukemia = tested on: MOLT-4 leukemia
NCI-H226 lung = tested on: NCI-H226 lung
NCI-H23 lung = tested on: NCI-H23 lung
NCI-H460 lung = tested on: NCI-H460 lung
NCI-H522 lung = tested on: NCI-H522 lung
OVCAR-3 ovarian = tested on: OVCAR-3 ovarian
OVCAR-4 ovarian = tested on: OVCAR-4 ovarian
OVCAR-5 ovarian = tested on: OVCAR-5 ovarian
OVCAR-8 ovarian = tested on: OVCAR-8 ovarian
RPMI-8226 leukemia = tested on: RPMI-8226 leukemia
SF-268 CNS = tested on: SF-268 CNS
SF-295 CNS = tested on: SF-295 CNS
SF-539 CNS = tested on: SF-539 CNS
SK-MEL-2 melanoma = tested on: SK-MEL-2 melanoma
SK-MEL-28 melanoma = tested on: SK-MEL-28 melanoma
SK-MEL-5 melanoma = tested on: SK-MEL-5 melanoma
SNB-19 CNS = tested on: SNB-19 CNS
SNB-75 CNS = tested on: SNB-75 CNS
SR leukemia = tested on: SR leukemia
SW-620 colon = tested on: SW-620 colon
TK-10 renal = tested on: TK-10 renal
U251 CNS = tested on: U251 CNS
UACC-257 melanoma = tested on: UACC-257 melanoma
UACC-62 melanoma = tested on: UACC-62 melanoma
UO-31 renal = tested on: UO-31 renal
XF 498 CNS = tested on: XF 498 CNS
A498 renal = tested on: A498 renal
EKVX NSCLC = tested on: EKVX NSCLC
LOX IMVI melanoma = tested on: LOX IMVI melanoma
RXF 393 renal = tested on: RXF 393 renal
SK-OV-3 ovarian = tested on: SK-OV-3 ovarian
SN12C renal = tested on: SN12C renal
SNB-78 CNS = tested on: SNB-78 CNS

CC[N+](CC)(CC)Cc1cc2ccccc2n1C(=O)OC
> 100 µM: TGI (786-0 renal) | TGI (A549 NSCLC) | TGI (ACHN renal) | TGI (CAKI-1 renal) | TGI (CCRF-CEM leukemia) | TGI (COLO 205 colon) | TGI (DLD-1 colon) | TGI (DMS 114 small cell lung) | TGI (DMS 273 small cell lung) | TGI (HCC-2998 colon) | TGI (HCT-116 colon) | TGI (HCT-15 colon) | TGI (HL-60(TB) leukemia) | TGI (HOP-62 NSCLC) | TGI (HOP-92 NSCLC) | TGI (HT29 colon) | TGI (IGROV1 ovarian) | TGI (K-562 leukemia) | TGI (KM12 colon) | TGI (KM20L2 colon) | TGI (LXFL 529 NSCLC) | TGI (M14 melanoma) | TGI (M19-MEL melanoma) | TGI (MALME-3M melanoma) | TGI (MOLT-4 leukemia) | TGI (NCI-H226 lung) | TGI (NCI-H23 lung) | TGI (NCI-H460 lung) | TGI (NCI-H522 lung) | TGI (OVCAR-3 ovarian) | TGI (OVCAR-4 ovarian) | TGI (OVCAR-5 ovarian) | TGI (OVCAR-8 ovarian) | TGI (RPMI-8226 leukemia) | TGI (SF-268 CNS) | TGI (SF-295 CNS) | TGI (SF-539 CNS) | TGI (SK-MEL-2 melanoma) | TGI (SK-MEL-28 melanoma) | TGI (SK-MEL-5 melanoma) | TGI (SNB-19 CNS) | TGI (SNB-75 CNS) | TGI (SR leukemia) | TGI (SW-620 colon) | TGI (TK-10 renal) | TGI (U251 CNS) | TGI (UACC-257 melanoma) | TGI (UACC-62 melanoma) | TGI (UO-31 renal) | TGI (XF 498 CNS)

CN(C)C(=O)Nc1c([N+](=O)[O-])cc(C(F)(F)F)cc1[N+](=O)[O-]
80.8 µM: TGI (XF 498 CNS)
59.3 µM: TGI (KM20L2 colon)
84.3 µM: TGI (UACC-257 melanoma)
> 100 µM: TGI (786-0 renal) | TGI (A498 renal) | TGI (A549 NSCLC) | TGI (ACHN renal) | TGI (CAKI-1 renal) | TGI (CCRF-CEM leukemia) | TGI (DMS 273 small cell lung) | TGI (EKVX NSCLC) | TGI (HCT-116 colon) | TGI (HCT-15 colon) | TGI (HOP-62 NSCLC) | TGI (HOP-92 NSCLC) | TGI (HT29 colon) | TGI (IGROV1 ovarian) | TGI (K-562 leukemia) | TGI (KM12 colon) | TGI (LOX IMVI melanoma) | TGI (LXFL 529 NSCLC) | TGI (M14 melanoma) | TGI (MOLT-4 leukemia) | TGI (NCI-H226 lung) | TGI (NCI-H23 lung) | TGI (NCI-H460 lung) | TGI (OVCAR-4 ovarian) | TGI (OVCAR-5 ovarian) | TGI (OVCAR-8 ovarian) | TGI (RPMI-8226 leukemia) | TGI (RXF 393 renal) | TGI (SF-268 CNS) | TGI (SF-295 CNS) | TGI (SF-539 CNS) | TGI (SK-MEL-2 melanoma) | TGI (SK-MEL-28 melanoma) | TGI (SK-MEL-5 melanoma) | TGI (SK-OV-3 ovarian) | TGI (SN12C renal) | TGI (SNB-19 CNS) | TGI (SNB-75 CNS) | TGI (SNB-78 CNS) | TGI (SR leukemia) | TGI (SW-620 colon) | TGI (TK-10 renal) | TGI (U251 CNS) | TGI (UACC-62 melanoma) | TGI (UO-31 renal)
77.5 µM: TGI (NCI-H522 lung)
53.7 µM: TGI (OVCAR-3 ovarian)
48 µM: TGI (HL-60(TB) leukemia)
69.3 µM: TGI (COLO 205 colon)

CCCCCC(=O)N[C@H]1CCc2cc(OC)c(OC)c(OC)c2-c2ccc(SC)c(=O)cc21
6.04 µM: TGI (XF 498 CNS)
1.17 µM: TGI (HOP-92 NSCLC)
19 µM: TGI (SN12C renal)
0.0811 µM: TGI (SK-OV-3 ovarian)
> 100 µM: TGI (A549 NSCLC) | TGI (CAKI-1 renal) | TGI (DLD-1 colon) | TGI (EKVX NSCLC) | TGI (MOLT-4 leukemia) | TGI (OVCAR-4 ovarian) | TGI (OVCAR-5 ovarian) | TGI (SK-MEL-28 melanoma) | TGI (SNB-78 CNS) | TGI (SW-620 colon)
0.0285 µM: TGI (COLO 205 colon)
11.6 µM: TGI (786-0 renal)
0.0484 µM: TGI (SK-MEL-5 melanoma)
0.0755 µM and 0.131 µM: TGI (HT29 colon)
32.9 µM: TGI (TK-10 renal)
inactive: GI50 (SK-MEL-28 melanoma) 25.1 µM
49.7 µM: TGI (HOP-62 NSCLC)
29.3 µM: TGI (UACC-62 melanoma)
50.7 µM: TGI (M19-MEL melanoma)
0.0449 µM: TGI (A498 renal)
34.8 µM: TGI (CCRF-CEM leukemia)
0.0354 µM: TGI (KM20L2 colon) | TGI (OVCAR-3 ovarian)
17.3 µM: TGI (LXFL 529 NSCLC)
0.0549 µM: TGI (HCC-2998 colon)
0.0913 µM and 0.0136 µM: TGI (HCT-116 colon)
24.1 µM: TGI (SF-268 CNS)
0.0646 µM: TGI (HCT-15 colon)
0.0374 µM: TGI (SF-539 CNS)
36 µM: TGI (ACHN renal)
11.2 µM: TGI (K-562 leukemia)
33.4 µM: TGI (UACC-257 melanoma)
